Data as given in US10045998B2 (BASF SE, priority 2013, dated 2018).
Where two headings read alike, the source gives them in different places. Blank lines part the entries; values can stand above or below the molecule they belong to.

Assays:
[1] = biopharmaceutics classification system; report EMA/CHMP/542871/2011; cited from earlier work
[2] = Aqueous solubility in purified water, 24 h equilibration, HPLC; type: physicochemical; conditions: 25° C.; for Aqueous solubility S: 24 h equilibration, effective solubility of abiraterone acetate (corrected for formula mass), LOD ca. one microgram per ml
Method: (§1) The resulting suspension is equilibrated in a temperature-controlled Eppendorf Thermomixer Comfort shaker for 2 hours or 24 hours at 25° C. at a shaking rate of 700 rpm. After 2 hours, or 24 hours, the solid phases are recovered by filter centrifugation (0.22 μm PVDF membrane). Concentrations in the filtrate after 2 hours or 24 hours (i.e. saturated solution) are determined by HPLC using under conditions given in the below Table; limit of detection (LOD) is ca. one microgram per ml.
(§2) For the results in Table a), the medium is purified water.

[3] = recent publications; quick absorption of a small fraction of the dose; cited from earlier work
[4] = Solubility of abiraterone acetate in phosphate buffer and various amounts of organic acids; type: physicochemical; conditions: for solubility: thermodynamic from solid, read-out: Solubility S
Method: as §1, §2

[5] = Dynamic (water) vapour sorption (DVS), hygroscopicity; type: physicochemical; conditions: 25° C.
Method: DVS: Dynamic (water) vapour sorption (DVS) is performed with a SPS11-100n (“Sorptions Prüfsystem” moisture sorption instrument from Projekt Meβtechnik, Ulm, Germany, using about 20 mg of sample material in an aluminum pan with a change rate of 5% of total relative humidity per hour. Program starting value of 50% with equilibration for 2 hours, continuously lowering to 0%, equilibration (i.e. humidity kept constant), scanning from 0% to 95%, equilibration, scanning from 95% to 0%, equilibration, scanning from 0% to 95%, equilibration, and scanning to 50% relative humidity. Sample temp. 25° C.

[6] = pKa of the organic acid / coformer; cited from earlier work

Aqueous solubility S [2]: <LOD
solubility ([4]; pH 3.1, aqueous buffer, phosphate buffer, no acid added, 25° C.): 2 µg/mL
solubility ([4]; phosphate buffer with ascorbic acid, pH 2.4, aqueous buffer, phosphate buffer, ascorbic acid 0.5 mol/L, 25° C.): 33 µg/mL
solubility ([4]; phosphate buffer with ascorbic acid, pH 2.8, aqueous buffer, phosphate buffer, ascorbic acid 0.1 mol/L, 25° C.): 5 µg/mL
solubility ([4]; phosphate buffer with citric acid, 25 °C, pH 2.3, aqueous buffer): 14 µg/mL
pH ([4]; phosphate buffer, ascorbic acid 0.1 mol/L): 2.8
pH ([4]; phosphate buffer, ascorbic acid 0.5 mol/L): 2.4
pH ([4]; phosphate buffer, citric acid 0.5 mol/L): 2.3
pH ([4]; phosphate buffer, no acid added): 3.1
Structure (SMILES): CC(=O)O[C@H]1CC[C@@]2(C)C(=CC[C@@H]3[C@@H]2CC[C@]2(C)C(c4cccnc4)=CC[C@@H]32)C1 [Abiraterone acetate, (3β)-17-(3-pyridinyl)androsta-5,16-dien-3-yl acetate]
BCS class [1]: class IV
median peak concentration, time after dosing [3]: 2 h

Structure (SMILES): CC(=O)O[C@H]1CC[C@@]2(C)C(=CC[C@@H]3[C@@H]2CC[C@]2(C)C(c4cccnc4)=CC[C@@H]32)C1.O=C(O)CC(O)C(=O)O [Example 3]
maximum water up-take at 95% r.h. [5]: less than 4%
Aqueous solubility S [2]: 13.8 microgram/ml

Aqueous solubility S [2]: 14.4 microgram/ml
pH of the saturated solution ([2]; after 24 h equilibration): 2.3
Structure (SMILES): O=C(O)/C=C\C(=O)O [Example 4, Maleic acid]

water up-take at 80% r.h. [5]: 0.1 to 0.2%
maximum water up-take at 95% r.h. [5]: less than 0.4%
Structure (SMILES): CC(=O)OC1CCC2(C)C(=CCC3C2CCC2(C)C(c4cccnc4)=CCC32)C1.O=C1NS(=O)(=O)c2ccccc21 (centres unmarked) [Example 6]

Structure (SMILES): CC(=O)O[C@H]1CC[C@@]2(C)C(=CC[C@@H]3[C@@H]2CC[C@]2(C)C(c4cccnc4)=CC[C@@H]32)C1.COc1cc(C(=O)O)ccc1O [Example 8]
water up-take at 80% r.h. [5]: about 0.2%
maximum water up-take at 95% r.h. [5]: less than 0.4%

Structure (SMILES): O=C(O)[C@H](O)[C@@H](O)C(=O)O [L-Tartaric acid, L-tartaric acid]
pKa [6]: L-Tartaric acid (2.95)
